Here are results for 77 molecules from patent publication US7238697B2, “Pyridylpyrimidines for use as pesticides” (Bayer CropScience AG, priority 2001, dated 2007).

A short description of the series: log P determination by HPLC (reversed-phase C18), EEC Directive 79/831 Annex V.A8. It is filed as physicochemical. The following applies: pH 2.3, HPLC, reversed-phase C 18, 43° C., 0.1% aqueous phosphoric acid/acetonitrile, read-out: log P (pH 2.3). As for the experimental part:
The stated log P values were determined in accordance with EEC Directive 79/831 Annex V.A8 by HPLC (High Performance Liquid Chromatography) using a reversed-phase column, (C 18). Temperature: 43° C. Mobile phases for the determination in the acidic range: 0.1% aqueous phosphoric acid, acetonitrile; linear gradient from 10% acetonitrile to 90% acetonitrile. Calibration was carried out using unbranched alkan-2-ones (having 3 to 16 carbon atoms) with known logP values (determination of the logP values by the retention times using linear interpolation between two successive alkanones).

Read-outs that look alike come from different tables or passages of the source.

Consider `CCOC(=O)COc1nccc(-c2ccccn2)n1` [Example 7, ethyl {[4-(2-pyridinyl)-2-pyrimidinyl]oxy}acetate], for which, for the setting “reversed-phase C18 HPLC column”, the chromatographic logP came to 1.73.

On to `CC1(COC(=O)CSc2nccc(-c3ccccn3)n2)COC1` [Example 158], for which the chromatographic logP (reversed-phase C18 HPLC column) was 1.98. On to `CC(C)/C=N/CCOC(=O)CSc1nccc(-c2ccccn2)n1` [Example 191], for which, for the setting “reversed-phase C18 HPLC column”, the chromatographic logP came to 2.02. For `CCCCCCCCCCCCOC(=O)CSc1nccc(-c2ccccn2)n1` [Example 86], where the note is “reversed-phase C18 HPLC column”, the chromatographic logP was 7.22.

For the molecule `O=C(CSc1nccc(-c2ccccn2)n1)NCc1ccccc1OC(F)(F)F` [Example 39], the chromatographic logP (reversed-phase C18 HPLC column) came out at 2.72. In the case of `CC(=O)O[C@H]1CCC[C@H]1OC(=O)CSc1nccc(-c2ccccn2)n1` [Example 248], for the setting “reversed-phase C18 HPLC column”, the chromatographic logP amounted to 2.65. For `Cc1c(NC(=O)CSc2nccc(-c3ccccn3)n2)cccc1[N+](=O)[O-]` [Example 313], the chromatographic logP (reversed-phase C18 HPLC column) was determined as 2.28.

Consider `COC(=O)/C=C(/CSc1nccc(-c2ccccn2)n1)OC` [Example 31], for which the chromatographic logP (reversed-phase C18 HPLC column) came to 2.7. On the same count and under the same terms, with `O=C(CSc1nccc(-c2ccccn2)n1)NCc1ccc(SC(F)(F)F)cc1` [Example 37] the figure was 2.93; with `CC(C)COC(=O)c1cccc(NC(=O)NCCCOC(=O)CSc2nccc(-c3ccccn3)n2)c1` [Example 131], 3.45. For `COC(=O)C[S+]([O-])c1nccc(-c2ccccn2)n1` (centres unmarked) [Example 108], the chromatographic logP (reversed-phase C18 HPLC column) stood at 0.89. Still for that read-out and setting: the same measure for `CCOC(=O)C(C)N(C)C(=O)CSc1nccc(-c2ccccn2)n1` (centres unmarked) [Example 310]: 1.93; for `COC(=O)CC(=O)CSc1nccc(-c2ccccn2)n1` [Example 14]: 1.76. Still for that read-out and setting: with `O=C(CSc1nccc(-c2ccccn2)n1)OCC(Cl)Cl` [Example 123] the figure was 2.78. Consider `CC(C=C(Cl)Cl)OC(=O)CSc1nccc(-c2ccccn2)n1` (centres unmarked) [Example 215], for which the chromatographic logP (reversed-phase C18 HPLC column) was determined as 3.48. For the molecule `CCOC(=O)CSc1nccc(-c2cc(CC)ccn2)n1` [Example 259], where the note is “reversed-phase C18 HPLC column”, the chromatographic logP is 2.69.

`COC(=O)CSc1nc(-c2ccccn2)cc(C(F)(F)F)n1` [Example 114]: the chromatographic logP (reversed-phase C18 HPLC column) amounted to 3.34. Take `COC(=O)CSc1nccc(-c2ccccn2)n1` [Example 10]: under “reversed-phase C18 HPLC column”, the chromatographic logP was 1.81.

Take `CC(=O)NCC(C)OC(=O)CSc1nccc(-c2ccccn2)n1` (centres unmarked) [Example 188]: the chromatographic logP (reversed-phase C18 HPLC column) was 1.97.

As to `O=C(CSc1nccc(-c2ccccn2)n1)NCCc1ccc(Cl)cc1` [Example 51], the chromatographic logP (reversed-phase C18 HPLC column) turned out to be 2.58.

Take `CO/N=C/C(C)OC(=O)CSc1nccc(-c2ccccn2)n1` (centres unmarked) [Example 212]: under “reversed-phase C18 HPLC column”, the chromatographic logP is 2.13. On the same count and under the same terms, the same measure for `CC(C)(C)C(=O)OCCNC(=O)NCCCOC(=O)CSc1nccc(-c2ccccn2)n1` [Example 129]: 2.51; for `O=C(CSc1nccc(-c2ccccn2)n1)Nc1cccc([N+](=O)[O-])c1` [Example 308]: 2.25; for `CCOC(=O)CSc1nccc(-c2cccc(Br)n2)n1` [Example 307]: 3.31. Consider `CC(C)OC(=O)C(C)OC(=O)CSc1nccc(-c2ccccn2)n1` (centres unmarked) [Example 194], for which the chromatographic logP (reversed-phase C18 HPLC column) was determined as 2.95.

Take `CC(C)OC(=O)CSc1nccc(-c2ccccn2)n1` [Example 1, isopropyl {[4-(2-pyridinyl)-2-pyrimidinyl]thio}-acetate]: under “reversed-phase C18 HPLC column”, the chromatographic logP was 2.56. Take `CC(C)NC(=O)OCCOC(=O)CSc1nccc(-c2ccccn2)n1` [Example 245]: where the note is “reversed-phase C18 HPLC column”, the chromatographic logP was 2.19.

Consider `CC(C)COC(=O)c1cccc(NC(=O)NCCOC(=O)CSc2nccc(-c3ccccn3)n2)c1` [Example 149], for which the chromatographic logP (reversed-phase C18 HPLC column) worked out at 3.01. The same measure, in the same setting: with `COC(=O)CCSc1nccc(-c2ccccn2)n1` [Example 78] the figure was 2.13. With `O=C(CSc1nccc(-c2ccccn2)n1)Nc1ccc(Cl)cc1` [Example 33], for the setting “reversed-phase C18 HPLC column”, the chromatographic logP was determined as 2.58.

With `CC(C)(C)OC(=O)CSc1nccc(-c2ccccn2)n1` [Example 35], the chromatographic logP (reversed-phase C18 HPLC column) is 2.96. Take `O=C(CSc1nccc(-c2ccccn2)n1)OCCn1cncn1` [Example 209]: the chromatographic logP (reversed-phase C18 HPLC column) came out at 1.32. On to `CCOC(=O)c1cc(NC(=O)NCCOC(=O)CSc2nccc(-c3ccccn3)n2)ccc1Cl` [Example 150], for which the chromatographic logP (reversed-phase C18 HPLC column) turned out to be 4.95. On to `O=C(CSc1nccc(-c2ccccn2)n1)OCCCN1CCCCC1` [Example 110], for which the chromatographic logP (reversed-phase C18 HPLC column) is 1.13. As for `CCOC(=O)/C=C/CSc1nccc(-c2ccccn2)n1` [Example 30], the chromatographic logP (reversed-phase C18 HPLC column) was found to be 2.92.

In the case of `Cn1nnc(CSc2nccc(-c3ccccn3)n2)n1` [Example 300], where the note is “reversed-phase C18 HPLC column”, the chromatographic logP worked out at 1.59.

As for `CSC(C)COC(=O)CSc1nccc(-c2ccccn2)n1` (centres unmarked) [Example 203], for the setting “reversed-phase C18 HPLC column”, the chromatographic logP turned out to be 2.78. Regarding `CCOC(=O)CSc1nccc(-c2ccc(Cl)cn2)n1` [Example 256], the chromatographic logP (reversed-phase C18 HPLC column) was determined as 3.23.

For the molecule `O=C(CSc1nccc(-c2ccccn2)n1)OCC(F)(F)C(F)(F)C(F)(F)F` [Example 119], the chromatographic logP was 3.37. Take `O=C(CSc1nccc(-c2ccccn2)n1)OCc1ccccc1` [Example 19]: the chromatographic logP (reversed-phase C18 HPLC column) was 2.99. For `CCOC(=O)C(C)OC(=O)CSc1nccc(-c2ccccn2)n1` (centres unmarked) [Example 22], where the note is “reversed-phase C18 HPLC column”, the chromatographic logP amounted to 2.58. Turning to `CC(C)(C)SC(=O)CSc1nccc(-c2ccccn2)n1` [Example 312], under “reversed-phase C18 HPLC column”, the chromatographic logP was determined as 3.61. As for `COCC(C)(C)COC(=O)CSc1nccc(-c2ccccn2)n1` [Example 190], where the note is “reversed-phase C18 HPLC column”, the chromatographic logP is 3.05. As to `O=C(CSc1nccc(-c2ccccn2)n1)OCC1CCCCC1` [Example 159], for the setting “reversed-phase C18 HPLC column”, the chromatographic logP was 4. On the same count and under the same terms, the same measure for `O=C(CSc1nccc(-c2ccccn2)n1)NCc1ccc2c(c1)OCO2` [Example 52]: 1.94. `CCOC(=O)CSc1nccc(-c2ccc3ccccc3n2)n1` [Example 296]: the chromatographic logP (reversed-phase C18 HPLC column) was 3.49.

Regarding `CCOC(=O)CSc1nccc(-c2ncccc2F)n1` [Example 281], the chromatographic logP (reversed-phase C18 HPLC column) amounted to 2.04. For the molecule `CCOC(=O)CSc1nccc(-c2cc(C(C)(C)C)ccn2)n1` [Example 316], for the setting “reversed-phase C18 HPLC column”, the chromatographic logP was found to be 3.55. Still for that read-out and setting: with `CCOC(=O)CSc1nccc(-c2cccc(OCC)n2)n1` [Example 104] the figure was 3.67; with `CCOC(=O)CSc1nccc(-c2cccc(Cl)n2)n1` [Example 111], 3.19; with `O=C(CSc1nccc(-c2ccccn2)n1)NCc1ccc(C(F)(F)F)cc1` [Example 47], 2.64. As for `COC(=O)C(Sc1nccc(-c2ccccn2)n1)C(C)=O` (centres unmarked) [Example 23], the chromatographic logP (reversed-phase C18 HPLC column) was determined as 2.34. In the case of `C=COC(=O)CSc1nccc(-c2ccccn2)n1` [Example 17], the chromatographic logP (reversed-phase C18 HPLC column) came out at 2.37. Regarding `CCNC(=O)COC(=O)CSc1nccc(-c2ccccn2)n1` [Example 231], the chromatographic logP (reversed-phase C18 HPLC column) worked out at 1.97. As for `CCOC(=O)CSc1ncc(C)c(-c2ccccn2)n1` [Example 271], the chromatographic logP (reversed-phase C18 HPLC column) worked out at 2.18. On to `O=C(CSc1nccc(-c2ccccn2)n1)Oc1ccccc1` [Example 15], for which the chromatographic logP (reversed-phase C18 HPLC column) was 2.88. Still for that read-out and setting: the same measure for `C=CCOC(=O)CSc1nccc(-c2ccccn2)n1` [Example 18]: 2.4; for `CCOC(=O)C(C)Sc1nccc(-c2ccccn2)n1` (centres unmarked) [Example 2, ethyl-2-{[4-(2-pyridinyl)-2-pyrimidinyl]thio}-propanoate]: 2.74; for `Cc1cccc(CNC(=O)CSc2nccc(-c3ccccn3)n2)c1` [Example 59]: 2.29.

With `O=C(CSc1nccc(-c2ccccn2)n1)N/N=C/c1ccc([N+](=O)[O-])cc1` [Example 135], for the setting “reversed-phase C18 HPLC column”, the chromatographic logP is 2.23.

For `COC(=O)CSc1nccc(-c2cc(C)ccn2)n1` [Example 103], the chromatographic logP (reversed-phase C18 HPLC column) came out at 1.8. Same read-out and setting: with `CCOC(=O)CSc1nccc(-c2ccc([N+](=O)[O-])cn2)n1` [Example 306] the figure was 2.77; with `O=C(CSc1nccc(-c2ccccn2)n1)OCCn1ccnn1` [Example 210], 1.42. Turning to `O=C(CSc1nccc(-c2ccccn2)n1)NCc1ccccc1SC(F)(F)F` [Example 138], under “reversed-phase C18 HPLC column”, the chromatographic logP came to 2.92. Same read-out and setting: with `O=C(CSc1nccc(-c2ccccn2)n1)NCc1ccc(Cl)cc1` [Example 54] the figure was 2.38. Regarding `CCOC(=O)CSc1nccc(-c2ccc(CC)cn2)n1` [Example 254], the chromatographic logP (reversed-phase C18 HPLC column) is 2.98.

Take `O=C(CSc1nccc(-c2ccccn2)n1)OCCCOc1ccc(F)cc1` [Example 91]: where the note is “reversed-phase C18 HPLC column”, the chromatographic logP worked out at 3.59.

`CCCCCCCCCCOC(=O)CSc1nccc(-c2ccccn2)n1` [Example 85]: the chromatographic logP (reversed-phase C18 HPLC column) came out at 6.15. For the molecule `CCC1(COC(=O)CSc2nccc(-c3ccccn3)n2)CCO1` (centres unmarked) [Example 198], the chromatographic logP (reversed-phase C18 HPLC column) came to 2.2. Consider `CCC(Sc1nccc(-c2ccccn2)n1)C(=O)OC` (centres unmarked) [Example 25], for which, under “reversed-phase C18 HPLC column”, the chromatographic logP came to 2.68. With `CS(=O)(=O)c1nccc(-c2ccccn2)n1` [2-(methylsulphonyl)-4-(2-pyridinyl)pyrimidine], the chromatographic logP (reversed-phase C18 HPLC column) stood at 0.99. For `O=C(CSc1nccc(-c2ccccn2)n1)OCC1COC(=O)O1` (centres unmarked) [Example 192], the chromatographic logP (reversed-phase C18 HPLC column) was 1.63. For the molecule `CC(C)CCOC(=O)CSc1nccc(-c2ccccn2)n1` [Example 89], where the note is “reversed-phase C18 HPLC column”, the chromatographic logP is 3.56. The same measure, in the same setting: the same measure for `O=C(CSc1nccc(-c2ccccn2)n1)OCCCl` [Example 126]: 2.29; for `O=C(CSc1nccc(-c2ccccn2)n1)OC1CCCCC1` [Example 21]: 3.53; for `C/C=N/OCCOC(=O)CSc1nccc(-c2ccccn2)n1` [Example 214]: 2.13. As for `O=C(CSc1nccc(-c2ccccn2)n1)OCC(F)F` [Example 116], the chromatographic logP (reversed-phase C18 HPLC column) was 2.25.
